From PubChem BioAssay AID2060901 (Molecular Pharmacology Branch, DTP, NCI, 2025)
Values joined by “and” are separate entries in the source; they are usually repeats but may differ in a detail not shown here. Equal values may be shown once.

Test system: 422866-222-R5-J1-PDC complex spheroids viability
Assay: Anticancer human tumor 422866-222-R5-J1-PDC patient-derived pancreatic adenocarcinoma cell line growth inhibition [RAS]
Settings: for viability, T/C: stronger effect = lower value
Source text: RAS pathway inhibitors in Combinations in Complex Spheroids
A high-throughput screen of multi-cell type tumor spheroids was designed to identify active combinations of RAS pathway inhibitors and targeted small molecules. Complex spheroids include a stromal component modeled by human endothelial cells (HUVEC) and fibroblasts modeled by human mesenchymal stem cells (MSCs). The concentration ranges selected for each drug and investigational agent were based upon clinically achievable concentrations if the clinical Cmax of the agent was known.
Compounds. The drugs and investigational agents: abemaciclib (NSC768073), cobimetinib (NSC768068), divarasib (GDC6063, NSC841802), docetaxel (NSC628503), GDC-1971 (RLY-1971, NSC841576), gemcitabine (NSC613327), inavolisib (NSC800729), ipatasertib (NSC767898), KB-0742 (NSC834161), MRTX-1133 (NSC836407), osimertinib (NSC779217), RMC-4630 (NSC839698), RMC-6236 (NSC851965), RMC-6291 (NSC852671), Ro-3306 (NSC812927), sapanisertib (NSC764658), SN-38 (NSC673596), staurosporine (NSC755774), SY5609 (NSC837396), and tovorafenib (DAY101, NSC766906), were obtained from the National Cancer Institute (NCI) Developmental Therapeutics Program Chemical Repository. The FDA-approved anticancer drug set is available from the NCI Developmental Therapeutics Program. […] The stock solutions were prepared in dimethyl sulfoxide (DMSO, Sigma-Aldrich, St. Louis, MO, cat. D2650) at 800-fold the tested concentration and stored at -70 degrees C prior to their use. All drugs and investigational agents were tested over a range starting from a high concentration at or near the clinical Cmax and decreasing in half-log increments. If the clinical Cmax for an agent had not been determined, the highest concentration tested was 10 microM.
Cell Culture. All cells were maintained in an incubator at 37 degrees C and 5% CO2 with 95% humidity. The PDC lines were cultured according to standard operating procedures established by the NCI PDMR. All PDCs were thawed and cultured in Matrigel-coated flasks prepared with a working solution of 1X Ham's F-12 nutrient mix, without supplementation (Invitrogen, Waltham, MA, cat. 11765054), 100 U/mL penicillin-streptomycin (Invitrogen, cat. 15140122), and 2.5% Matrigel (Corning Inc., Corning, NY, cat. 354248) for the first three passages. The 362531-283-R-J2-PDC and 782815-120-R-J1-PDC lines were cultured in 6C/Colon 1B media, which includes advanced DMEM/F-12 (Thermo Fisher Scientific, cat. 12634028), 10 mM HEPES (Thermo Fisher Scientific, cat. 15630080), 1X GlutaMAX supplement (Thermo Fisher Scientific, cat. 35050061), 0.1 mg/mL primocin (InvivoGen, San Diego, CA, cat. ant-pm-2), 10% defined fetal bovine serum, heat inactivated (HyClone Laboratories Inc., Logan, UT, cat. SH30070.03HI), 50% L-WRN conditioned media (ATCC, cat. CRL-3276), 1.25 mM N-Acetyl-L-cysteine (Sigma-Aldrich, cat. A9165), 10 mM nicotinamide (Sigma-Aldrich, cat. N0636), 1X B-27 supplement (Thermo Fisher Scientific, cat. 17504044), 1X N-2 supplement (Thermo Fisher Scientific, cat. 17502048), 50 ng/mL human EGF (Thermo Fisher Scientific, cat. PHG0311), and 10 microM Y-27632 dihydrochloride (Tocris Bioscience, cat. 1254). The K12877-001-R-J1-PDC line was cultured in 6I media, which includes all 6C/Colon 1B media plus 10 ng/mL human FGF-10 (PeproTech, cat. 100-26), 1 ng/mL human FGF-2 (PeproTech, cat. 100-18B), 1 µM prostaglandin E2 (Tocris Bioscience, cat. 2296), […] hydrocortisone (Sigma-Aldrich, cat. H4001), and […] bovine insulin (Sigma-Aldrich, cat. I6634). The K86415-001-R-J1-PDC line was cultured in 6D media, which includes all 6C/Colon 1B media components minus the L-WRN conditioned media. The 485176-168-R4-J1-PDC was cultured in PANC media, which includes all 6C/Colon 1B media plus 100 ng/mL human FGF-10 (PeproTech, cat. 100-26), 500 nM SB-431542 (Selleckchem, cat. S1067), and 10 nM gastrin (Tocris Bioscience, cat. 3006). […]

[1] = compound alone, run of 05/20/2024
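Also: spheroids exposed to compounds for 7 days.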
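For viability, T/C in this document: 100% = DMSO vehicle control viability.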

| Compound | IC50 (compound alone, run of 06/10/2024) [nM] | IC50 (curve of compound) [nM] | IC50 [1] [nM] | viability, T/C (compound 0.00316 µM) | viability, T/C (compound 0.01 µM) | viability, T/C (compound 0.0316 µM) | viability, T/C (compound 0.1 µM) | viability, T/C (compound 0.316 µM) | viability, T/C (compound 1 µM) | viability, T/C (compound 0.000316 µM) | viability, T/C (compound 0.001 µM) | viability, T/C (compound 0.003 µM) | viability, T/C (compound 0.00949 µM) | viability, T/C (compound 0.03 µM) | viability, T/C (compound 0.0949 µM) | viability, T/C (compound 0.3 µM) | viability, T/C (compound 0.000949 µM) |
| --- | --- | --- | --- | --- | --- | --- | --- | --- | --- | --- | --- | --- | --- | --- | --- | --- | --- |
| CCc1c2c(nc3ccc(O)cc13)-c1cc3c(c(=O)n1C2)COC(=O)[C@]3(O)CC | – | – | – | – | – | – | – | – | – | – | – | 51.2% [middle of 4 runs] | 51.5% [middle of 4 runs] | 53.4% [middle of 4 runs] | – | 41.4% [middle of 4 runs] | 77.2% [middle of 4 runs] |
| CCn1c(-c2cccnc2C(C)OC)c2c3cc(ccc31)N1CCOC(CC(NC(=O)C(C(C)C)N(C)C(=O)C3(F)CCN(C(=O)C#CC(C)(C)N(C)C)CC3)C(=O)N3CCCC(N3)C(=O)OCC(C)(C)C2)C1 (stereo not given) | – | – | < 0.949 | – | – | – | – | – | – | – | – | 23.3% [middle of 8 runs] | 21.9% [middle of 8 runs] | 22.1% [middle of 8 runs] | 22.5% [middle of 8 runs] | 20.2% [middle of 8 runs] | 25.9% [middle of 8 runs] |
| Nc1ccn(C2OC(CO)C(O)C2(F)F)c(=O)n1 (stereo not given) | – | – | – | 91.2% [middle of 4 runs] | 82.8% [middle of 4 runs] | 72.5% [middle of 4 runs] | 55% [middle of 4 runs] | 42.9% [middle of 4 runs] | 37.8% [middle of 4 runs] | – | – | – | – | – | – | – | – |
| O=C(c1ccc(F)c(F)c1Nc1ccc(I)cc1F)N1CC(O)([C@@H]2CCCCN2)C1 | – | – | – | 98.2% [middle of 4 runs] | 74.8% [middle of 4 runs] | 60.7% [middle of 4 runs] | 57% [middle of 4 runs] | 45.2% [middle of 4 runs] | 39.2% [middle of 4 runs] | – | – | – | – | – | – | – | – |

Second part, led by results:

| IC50 (compound alone, run of 06/10/2024) [nM] | IC50 (curve of compound) [nM] | IC50 [1] [nM] | Compound | viability, T/C (compound 0.00316 µM) | viability, T/C (compound 0.01 µM) | viability, T/C (compound 0.0316 µM) | viability, T/C (compound 0.1 µM) | viability, T/C (compound 0.316 µM) | viability, T/C (compound 1 µM) | viability, T/C (compound 0.000316 µM) | viability, T/C (compound 0.001 µM) | viability, T/C (compound 0.003 µM) | viability, T/C (compound 0.00949 µM) | viability, T/C (compound 0.03 µM) | viability, T/C (compound 0.0949 µM) | viability, T/C (compound 0.3 µM) | viability, T/C (compound 0.000949 µM) |
| --- | --- | --- | --- | --- | --- | --- | --- | --- | --- | --- | --- | --- | --- | --- | --- | --- | --- |
| < 3.16 | < 3.16 | – | C=CC(=O)N1CCN(c2nc(OCC3CCCN3C)nc3c(F)c(-c4nc(N)cc(C)c4C(F)(F)F)c(Cl)cc23)C(C)C1 (stereo not given) | 28% [middle of 12 runs] | 27.2% [middle of 12 runs] | 24.1% [middle of 12 runs] | 24.8% [middle of 12 runs] | 26.7% [middle of 12 runs] | 26.5% [middle of 12 runs] | – | – | – | – | – | – | – | – |
| – | > 1000 | – | C=CC(=O)Nc1cc(Nc2nccc(-c3cn(C)c4ccccc34)n2)c(OC)cc1N(C)CCN(C)C | 106% [middle of 4 runs] | 74.7% and 114% (2×) and 81.9% | 87.1% [middle of 4 runs] | – | 77.7% [middle of 4 runs] | – | – | – | – | – | – | – | – | – |
| – | > 100 | – | CC(C)n1nc(-c2ccc3oc(N)nc3c2)c2c(N)ncnc21 | – | 94% [middle of 4 runs] | – | – | – | – | 103% [middle of 4 runs] | 82.4% [middle of 4 runs] | – | – | – | – | – | – |
| – | > 300 | – | CC1(C)CCC(Nc2ncc(C(F)(F)F)c(-c3c[nH]c4c(P(C)(C)=O)c(C#N)ccc34)n2)CN1 (stereo not given) | – | – | – | – | – | – | – | – | 93% [middle of 4 runs] | 78.1% [middle of 4 runs] | 73.1% [middle of 4 runs] | 67.2% [middle of 4 runs] | 69.9% [middle of 4 runs] | – |
| – | > 1000 | – | CCN1CCN(Cc2ccc(Nc3ncc(F)c(-c4cc(F)c5nc(C)n(C(C)C)c5c4)n3)nc2)CC1 | 93% [middle of 4 runs] | – | 90.8% [middle of 4 runs] | 77.8% [middle of 4 runs] | 78% [middle of 4 runs] | 87.2% [middle of 4 runs] | – | – | – | – | – | – | – | – |
| – | – | < 0.949 | CCn1c(-c2cc(N3CCN(C)CC3)cnc2C(C)OC)c2c3cc(ccc31)-c1csc(n1)CC(NC(=O)C1CC1C)C(=O)N1CCCC(N1)C(=O)OCC(C)(C)C2 (stereo not given) | – | – | – | – | – | – | – | – | 22.6% [middle of 8 runs] | 19.6% [middle of 8 runs] | 20.2% [middle of 8 runs] | 23% [middle of 8 runs] | 21.7% [middle of 8 runs] | 29.7% [middle of 8 runs] |
